Measured values taken from the supplement of paper PMC10307832.

Tests used:
Experiment in all cases: relative viability (nuclei count vs DMSO), 5 days (fraction); higher = more cells survive
JZL-184 + Foretinib = compound: C1CN(CCC1C(C2=CC3=C(C=C2)OCO3)(C4=CC5=C(C=C4)OCO5)O)C(=O)OC6=CC=C(C=C6)[N+](=O)[O-] [JZL-184] + COc1cc2c(Oc3ccc(NC(=O)C4(C(=O)Nc5ccc(F)cc5)CC4)cc3F)ccnc2cc1OCCCN1CCOCC1 [Foretinib] (partner 0.25 µM)
Summary of the method: (§1)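 Lung cancer cell lines in 1536-well plates were dosed by pin tool the day after seeding, either with one drug alone or with a fixed anchor-drug dose plus five library-drug doses (not always all listed) in √10 steps. After 5 days, cells were fixed and their nuclei stained in one step (final 0.05% Triton X-100, 1% formaldehyde, 1 ug/ml Hoechst), then counted on 4× images. Relative viability is the nuclei count in treated wells divided by that in vehicle wells. Values are medians of duplicate plates.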

JZL-184 + OSI-027 = compound: C1CN(CCC1C(C2=CC3=C(C=C2)OCO3)(C4=CC5=C(C=C4)OCO5)O)C(=O)OC6=CC=C(C=C6)[N+](=O)[O-] [JZL-184] + COc1cccc2cc(-c3nc([C@H]4CC[C@H](C(=O)O)CC4)n4ncnc(N)c34)[nH]c12 [OSI-027] (partner 0.5 µM)
Summary of the method: as §1

JZL-184 + Crizotinib = compound: C1CN(CCC1C(C2=CC3=C(C=C2)OCO3)(C4=CC5=C(C=C4)OCO5)O)C(=O)OC6=CC=C(C=C6)[N+](=O)[O-] [JZL-184] + C[C@@H](Oc1cc(-c2cnn(C3CCNCC3)c2)cnc1N)c1c(Cl)ccc(F)c1Cl [Crizotinib] (partner 1 µM)
Summary of the method: as §1

JZL-184 + Alpelisib = compound: C1CN(CCC1C(C2=CC3=C(C=C2)OCO3)(C4=CC5=C(C=C4)OCO5)O)C(=O)OC6=CC=C(C=C6)[N+](=O)[O-] [JZL-184] + Cc1nc(NC(=O)N2CCC[C@H]2C(N)=O)sc1-c1ccnc(C(C)(C)C(F)(F)F)c1 [Alpelisib] (partner 2 µM)
Summary of the method: as §1

JZL-184 + Phenformin = compound: C1CN(CCC1C(C2=CC3=C(C=C2)OCO3)(C4=CC5=C(C=C4)OCO5)O)C(=O)OC6=CC=C(C=C6)[N+](=O)[O-] [JZL-184] + N=C(N)NC(=N)NCCc1ccccc1 [Phenformin] (partner 250 µM)
Summary of the method: as §1

| Cell Line | relative viability (JZL-184 + Foretinib; first compound 0.04 µM) | relative viability (JZL-184 + Foretinib; first compound 0.4 µM) | relative viability (JZL-184 + Foretinib; first compound 1.265 µM) | relative viability (JZL-184 + Foretinib; first compound 4 µM) | relative viability (JZL-184 + OSI-027; first compound 0.04 µM) | relative viability (JZL-184 + OSI-027; first compound 0.4 µM) | relative viability (JZL-184 + OSI-027; first compound 1.265 µM) | relative viability (JZL-184 + OSI-027; first compound 4 µM) | relative viability (JZL-184 + Crizotinib; first compound 0.04 µM) | relative viability (JZL-184 + Crizotinib; first compound 0.4 µM) | relative viability (JZL-184 + Crizotinib; first compound 1.265 µM) | relative viability (JZL-184 + Crizotinib; first compound 4 µM) | relative viability (JZL-184 + Alpelisib; first compound 0.04 µM) | relative viability (JZL-184 + Alpelisib; first compound 0.4 µM) | relative viability (JZL-184 + Alpelisib; first compound 1.265 µM) | relative viability (JZL-184 + Alpelisib; first compound 4 µM) | relative viability (JZL-184 + Phenformin; first compound 0.04 µM) | relative viability (JZL-184 + Phenformin; first compound 0.4 µM) | relative viability (JZL-184 + Phenformin; first compound 1.265 µM) | relative viability (JZL-184 + Phenformin; first compound 4 µM) |
| --- | --- | --- | --- | --- | --- | --- | --- | --- | --- | --- | --- | --- | --- | --- | --- | --- | --- | --- | --- | --- |
| NCI-H727 | 0.981 | 0.744 | 0.932 | 0.845 | 0.665 | 0.592 | 0.591 | 0.582 | 0.876 | 0.728 | 0.903 | 0.864 | 0.539 | 0.627 | 0.542 | 0.629 | 0.676 | 0.517 | 0.509 | 0.45 |
| NCI-H838 | 1.04 | 1.04 | 1.14 | 0.901 | 0.434 | 0.368 | 0.441 | 0.389 | 1.05 | 0.885 | 0.941 | 0.76 | 1.08 | 1.09 | 1.03 | 0.957 | 0.594 | 0.601 | 0.643 | 0.608 |
| NCI-H1355 | 1.06 | 0.936 | 1.01 | 0.929 | 0.393 | 0.421 | 0.494 | 0.386 | 1.06 | 1.01 | 1.22 | 0.925 | 0.774 | 0.826 | 0.828 | 0.81 | 0.421 | 0.427 | 0.505 | 0.429 |
| NCI-H1437 | 1.27 | 1.16 | 1.31 | 1.21 | 0.88 | 0.849 | 0.849 | 0.866 | 0.938 | 0.889 | 0.888 | 0.841 | 1.12 | 0.971 | 0.92 | 0.916 | 0.301 | 0.307 | 0.302 | 0.288 |
| NCI-H1651 | 0.798 | 0.786 | 0.725 | 0.788 | 0.684 | 0.664 | 0.855 | 0.794 | 0.896 | 0.839 | 0.895 | 0.87 | 1.05 | 0.929 | 1.03 | 0.834 | 0.393 | 0.3 | 0.337 | 0.353 |
| NCI-H1666 | 1.07 | 0.895 | 0.942 | 1 | 0.974 | 0.908 | 0.903 | 0.866 | 1.17 | 0.983 | 0.872 | 0.992 | 1.04 | 0.919 | 1.05 | 1.06 | 0.614 | 0.585 | 0.538 | 0.534 |
| NCI-H1734 | 0.982 | 0.743 | 0.957 | 0.771 | 0.621 | 0.615 | 0.718 | 0.594 | 0.806 | 0.617 | 0.672 | 0.701 | 0.658 | 0.545 | 0.714 | 0.642 | 0.469 | 0.36 | 0.38 | 0.349 |
